This data set in a line: photoluminescence quantum yield (fraction); solvent given as SMILES.
[1] abbreviates: in O=P(c1ccccc1)(c1ccccc1)c1ccccc1Oc1ccccc1P(=O)(c1ccccc1)c1ccccc1.

SMILES strings stand for the structures.

Under setting [1], `COc1ccc(-c2nc(-c3ccc(OC)cc3C)nc(-c3ccc(N4c5ccccc5C5(c6ccccc6-c6ccccc65)c5ccccc54)cc3C)n2)c(C)c1` had a photoluminescence quantum yield of 0.51.

Where the note is “in ClC(Cl)Cl”, `CN(C)c1ccc(-c2cc(-c3ccc(C#N)cc3)nc(-c3ccccc3)n2)cc1` had a photoluminescence quantum yield of 0.44.

`N#C/C(=C\c1ccncc1)c1nc(-c2ccccc2)cs1`: the photoluminescence quantum yield is 0.263 (in CC#N); 0.6 (in CCO); 0.406 (in CN(C)C=O); 0.124 (in CS(C)=O); 0.346 (in Cc1ccccc1); 0.086 (in ClCCl).

Under “in CN(C)C=O”, `Cc1cc(-c2ccc(-c3nc4ccccc4[nH]3)cc2)ccc1-c1ccc(-c2nc3ccccc3[nH]2)cc1` showed a photoluminescence quantum yield of 0.82.

`Cc1ccc(NC(=O)c2ccc(N(C)C)cc2)cc1` yielded a photoluminescence quantum yield (in C1CCCCC1) of 0.0015, a photoluminescence quantum yield (in C1CCOC1) of 0.0028, a photoluminescence quantum yield (in CC#N) of 0.0027 and a photoluminescence quantum yield (in CCOCC) of 0.0034.

Where the note is “in Cc1ccccc1”, `COc1ccc2c3ccc(OC)cc3n(-c3ccc(-c4nnc(-c5c(C)cc(C)cc5C)o4)cc3C)c2c1` returned a photoluminescence quantum yield of 0.06.

In the case of `N#Cc1ccc(-c2cn3cc(C#N)c[n+]3[n-]2)cc1`, the photoluminescence quantum yield (in ClCCl) amounted to 0.45.

Consider `Fc1c(F)c(-n2c3ccccc3c3ccccc32)c(F)c(F)c1/C=C/c1ccc(C(=C(c2ccccc2)c2ccccc2)c2ccccc2)cc1`, for which the photoluminescence quantum yield (in Cc1ccccc1) turned out to be 0.003.

Consider `CN(C)c1ccc(/C=C/c2ccccc2)cc1`, for which the photoluminescence quantum yield reads like this: (in CC#N) 0.04; (in CCCCCC) 0.03.

For the molecule `CN1c2cc3nc4cc(F)c(F)cc4nc3cc2N(C)C1(C)C`, the photoluminescence quantum yield (in CCO) was 0.8.

`[O-][n+]1c(/C=C/c2ccc3ccccc3c2)nc(N2CCOCC2)c2c1CCCC2` displayed a photoluminescence quantum yield (in ClCCl) of 0.05.

For the setting “in ClCCl”, `O=S1(=O)C2=C(c3ccccc31)C1(c3ccccc32)c2ccccc2-c2sc3ccccc3c21` (configuration not stated) gave a photoluminescence quantum yield of 0.01.

Molecule `C=Cc1cc2ccccc2oc1=O` came in with a photoluminescence quantum yield (in CC#N) of 0.08.

For the setting “in ClC(Cl)Cl”, `O=Cc1ccc(C#CC(C#Cc2ccc(C=O)o2)=Cc2ccc(C=C(C#Cc3ccc(C=O)o3)C#Cc3ccc(C=O)o3)s2)o1` came in with a photoluminescence quantum yield of 0.01.

As for `CN(C)c1ccc(C(=Cc2ccc(C=O)cc2)c2ccc(N(C)C)cc2)cc1`, the photoluminescence quantum yield (in C1CCOC1) came to 0.059.

With `CCN(CC)c1ccc([N+]2=Cc3ccc4c5c(ccc4c3O[B-]2(c2c(F)c(F)c(F)c(F)c2F)c2c(F)c(F)c(F)c(F)c2F)C=[N+](c2ccc(N(CC)CC)cc2)[B-](c2c(F)c(F)c(F)c(F)c2F)(c2c(F)c(F)c(F)c(F)c2F)O5)cc1`, the photoluminescence quantum yield is, setting by setting: (in Cc1ccccc1) 0.33; (in ClCCl) 0.1.

`CC1=C(C(C)(C)C)C(C)=[N+]2C1=C(C)c1c(C)c(C(C)(C)C)c(C)n1[B-]2(F)F`: the photoluminescence quantum yield is, setting by setting: (in C1CCCCC1) 0.32; (in C1CCOC1) 0.37; (in C1COCCO1) 0.4; (in CC#N) 0.44; (in CC(C)=O) 0.44; (in CC(C)CC(C)(C)C) 0.4. Besides, the photoluminescence quantum yield (in CCC(C)C) was 0.4; the photoluminescence quantum yield (in CCCC(C)=O) stood at 0.46; the photoluminescence quantum yield (in CCCCCC) was found to be 0.43; the photoluminescence quantum yield (in CCCCCCCCO) turned out to be 0.41; the photoluminescence quantum yield (in CCCCCCO) worked out at 0.42; the photoluminescence quantum yield (in CCCCO) was 0.39. The molecule further had a photoluminescence quantum yield (in CCCCOC(C)=O) of 0.43; a photoluminescence quantum yield (in CCCO) of 0.39; a photoluminescence quantum yield (in CCO) of 0.43; a photoluminescence quantum yield (in CCOC(C)=O) of 0.44; a photoluminescence quantum yield (in CCOCC) of 0.43; a photoluminescence quantum yield (in CN(C)C=O) of 0.35. In addition, the photoluminescence quantum yield (in CNC=O) came out at 0.47, the photoluminescence quantum yield (in CO) came out at 0.48, the photoluminescence quantum yield (in COC(C)=O) worked out at 0.48 and the photoluminescence quantum yield (in OCC(F)(F)F) amounted to 0.49.

Take `c1ccc(-c2cn3ccc[n+]3[n-]2)cc1`: under “in ClCCl”, the photoluminescence quantum yield was 0.03.

The molecule `CCC1=C(C)C2=Cc3c4ccccc4c4n3[B-](c3ccc(OC)cc3)(Oc3ccccc3-4)[N+]2=C1C` (configuration not stated) had a photoluminescence quantum yield (in CC#N) of 0.67, a photoluminescence quantum yield (in CCCCCC) of 0.71, a photoluminescence quantum yield (in Cc1ccccc1) of 0.68 and a photoluminescence quantum yield (in ClCCl) of 0.7.

The molecule `c1ccc2cc(-c3c4ccccc4c(-c4ccc(-c5ccc(-n6c7ccccc7c7ccccc76)cc5)cc4)c4ccccc34)ccc2c1` displayed a photoluminescence quantum yield (in ClCCl) of 0.7.

In the case of `COC(=O)/C(C#N)=c1/cc/c(=c2/cc/c(=C(\C#N)C(=O)OC)s2)s1`, the photoluminescence quantum yield (in Cc1ccccc1) was found to be 0.0035.

As to `C(=C\c1cc(-c2ccc3ccccc3c2)c(/C=C/c2ccc(N(c3ccccc3)c3ccccc3)cc2)cc1-c1ccc2ccccc2c1)/c1ccc(N(c2ccccc2)c2ccccc2)cc1`, where the note is “in ClCCl”, the photoluminescence quantum yield is 0.59.

Turning to `CC1=[N+]2C(=C(c3c4ccccc4cc4ccccc34)c3ccc(/C=C/C(C)(C)C)n3[B-]2(F)F)C=C1`, the photoluminescence quantum yield (in ClC(Cl)Cl) was 0.32.

Molecule `CC(C)(C)c1ccc(-c2ccc(C(C)(C)C)cc2)cc1` displayed a photoluminescence quantum yield (in C1CCCCC1) of 0.26.

With `Oc1ccccc1-c1nc2c3ccccc3c3ccccc3c2n1-c1ccccc1`, the photoluminescence quantum yield (in Cc1ccccc1) turned out to be 0.001.

As to `CN(C)c1ccc(C2=CC3=C(c4ccc([N+](=O)[O-])cc4)[C@H]4c5ccccc5[C@]3(S2)c2ccccc24)cc1`, for the setting “in ClCCl”, the photoluminescence quantum yield came out at 0.003.

As to `CN(C)CCN(Cc1c2ccccc2cc2ccccc12)c1ccc([N+](=O)[O-])cc1[N+](=O)[O-]`, the photoluminescence quantum yield was 0.0001 (in C1CCCCC1); 0.0004 (in C1CCOC1); 0.0185 (in CC#N); 0.0043 (in CC(C)=O); 0.0087 (in CCO); 0.0293 (in CN(C)C=O). The photoluminescence quantum yield (in CO) turned out to be 0.0093, the photoluminescence quantum yield (in CS(C)=O) was found to be 0.0426, the photoluminescence quantum yield (in ClC(Cl)Cl) came to 0.0009 and the photoluminescence quantum yield (in ClCCl) is 0.0057.

Consider `c1ccc2c(c1)Oc1ccccc1N2c1ccc2c(c1)c1ccccc1n1ccnc21`, for which the photoluminescence quantum yield under setting [1] came out at 0.27.

For `CCCCC(CC)Cn1c2cc(C#N)ccc2c2ccc(C#Cc3ccc4ccc5c(C#Cc6ccc7c8ccc(C#N)cc8n(CC(CC)CCCC)c7c6)ccc6ccc3c4c65)cc21` (configuration not stated), the photoluminescence quantum yield (in ClCCl) is 0.38.

Consider `COc1ccc2oc(-c3cc4cc(OC)ccc4oc3=O)cc2c1`, for which the photoluminescence quantum yield (in CS(C)=O) stood at 0.16.

`Cc1cn(CCCn2cc(C)c(=O)[nH]c2=O)c(=O)nc1-n1cncn1` displayed a photoluminescence quantum yield (in O) of 0.016.

Molecule `CCN(CC)c1ccc(/C=N/CC/N=C/c2ccc(N(CC)CC)cc2O)c(O)c1` returned a photoluminescence quantum yield (in CC#N) of 0.13.

Take `COc1cc2sc3nc(-c4ccccc4)sc3c2cc1OC`: the photoluminescence quantum yield (in CS(C)=O) came to 0.52.

For the molecule `COC(=O)c1ccccc1-c1c2ccc(=[NH2+])cc-2oc2cc(N)ccc12`, the photoluminescence quantum yield runs as follows: (in CC#N) 1; (in CCO) 0.88; (in CN(C)C=O) 0.74; (in O) 0.89.

For the molecule `CC1(C)[C@@H]2[C@@H]1[C@]1(c3ccccc3)N=NC2(c2ccccc2)C2C3C=CC(C3)C21` (some centres not stated), where the note is “in CC#N”, the photoluminescence quantum yield was 0.08.

In the case of `CCCCC(CC)CN1C(=O)c2cc(Oc3ccc(C(C)(C)C)cc3)c3c4c(Cl)cc5c6c(cc(Cl)c(c7c(Oc8ccc(C(C)(C)C)cc8)cc(c2c37)C1=O)c64)C(=O)N(c1c(C(C)C)cccc1C(C)C)C5=O` (configuration not stated), the photoluminescence quantum yield (in Cc1ccccc1) is 0.72.

For the origin of these results see the Deep4Chem optical property database.
